Counter-ions that a name gives are not always drawn.

We go through two compounds from patent US5270472A, “Alkanoyl L-carnitine amides with aminoacids and pharmaceutical compositions containing same for promoting regeneration of the nervous tissue, inhibiting neuronal degeneration, enhancing the process of learning and memory and for the treatment of coma” (Sigma-Tau Industrie Farmaceutiche Riunite S.p.A., priority 1991, dated 1993).

The subject of data set [1] is choline acetyltransferase (ChAT). Nature of the data set: Choline acetyltransferase (ChAT) activity in PC 12 cells. The format is cell-based, rat. The following applies: 1 mM, 6 days. On the procedure: (§1) Rat pheochromocytoma ((PC 12) cells were grown in RPMI 1640, supplemented with 5% heat inactivated horse serum +5% heat inactivated fetal calf serum at 37° C. in humidified incubator with 5% CO2 atmosphere and fed on alternate days. At subconfluency, cells were dislodged by vigorous shaking and reseeded at 1:1 ratio. Acetyl L-carnitine ALCAR® and ST 857 were dissolved in RPMI and added to cells at the final concentrations indicated in the various experiments.
The method described by Fonnum, F. in "A rapid radiochemical method for the determination of choline acetyltransferase". J. of Neurochem. (1975) vol. 24, 407:409 was used. Briefly, the compounds were added to the culture medium at final concentration of 1 mM.
The cells were grown for 6 days in the presence of ST 857. The medium was changed every other day. On the sixth day the cells were harvested and resuspended directly in a homogenization buffer for ChAT activity assay. Protein content was assayed on an aliquot of the cell suspensions.

Another data set concerns PC 12 cells. Put plainly: Neurite outgrowth experiment. The format is cell-based, rat. The protocol:
The rat pheochromocytoma (PC 12) cell line was chosen as an in vitro model system for NGF-responsive neurons. PC 12 cells are a cell line derived from a tumor of rat adrenal medulla that display NGFR similar to those described for sympathetic and sensory neurons, PC 12 typically respond to NGF by elongating neurites and developing into electrically excitable cells featuring some characteristics of the post-mitotic cholinergic neuronal phenotype.
as §1
PC 12 cells were plated out into 35 mm Petri dishes at a density 2×10^5 cells/ml. On the sixth day of either ALCAR® or ST 857 treatment (1 mM), the cells were added with NGF dissolved in RPMI 1640 at a suboptimal concentration (i.e. ineffective to stimulate neurite outgrowth) of 1 ng/mL (0.037 nM). On day 5 after addition, 100-120 cells from 5-12 randomly chosen microscope fields were counted and assayed for presence of neurities. […]

A further data set is described as follows: Tolerability, LD50. The following applies: mouse, in vivo, mice. On the procedure: In mice, LD50 orally is higher than 2 g/kg; LD50 intraperitoneally is higher than 600 mg/kg.
The next data set deals with NGFR mRNA. Put plainly: NGFR mRNA in HCN-1A cells. The format is cell-based, human. The following applies: following ST 857 treatment. From the text:
(§2) The HCN-1A cells are a non-tumoral cell line derived from human cortical neuroblasts which respond to NGF by differentiating into bipolar or multipolar neurite-bearing neurons.

Data set [2] is described as follows: Tolerability, intraperitoneal or oral. The format is in vivo.
A further data set has as its system HCN-1A cells. Put plainly: Effect on cultured human cortical cell line (HCN-1A). The format is cell-based.
Source text: as §2
HCN-1A cells show immunoreactivity for different neurotransmitters such as GABA, glutamate, somatostatin, cholccystokinin-8 […] and VIP (vasoactive intestinal polypeptide).

[3] abbreviates: in the presence of NGF (10 ng/mL).

`CC(=O)O[C@H](CC(=O)[O-])C[N+](C)(C)C` [ACETYL L-CARNITINE, acetyl L-carnitine, reference compound]: the results for the ChAT activity in data set [1] (in the absence of NGF) and in data set [1] (setting [3]) were 33.3 ± 4.2 nmoli ACh/mg/hour and 133.3 ± 4.4 nmoli ACh/mg/hour, respectively.

In general, LD50 refers to the dose expected to kill half of the subjects tested. For the compound `CC(=O)O[C@H](CC(=O)N[C@@H](CCCNC(=N)N)C(=O)O)C[N+](C)(C)C` [ST 857, L-acetyl L-carnitinamide of L-arginine chloride hydrochloride], the “enhancement of the action of NGF on PC 12 cells” value in the data set with PC 12 cells (compared with ALCAR® treatment) is “enhanced by ST 857 treatment more potently than by ALCAR® treatment”. For the same compound, the “stimulation of neurite outgrowth (in words)” value with PC 12 cells (in the absence of NGF) is listed as “effective in stimulating neurite outgrowth, even in the absence of NGF”. Besides, the LD50 is over 600 mg/kg in “Tolerability, LD50” (ip, intraperitoneally) and over 2000 mg/kg in the data set “Tolerability, LD50” (po, orally). Further, the “NGFR mRNA” value with NGFR mRNA was “increased in these cells following ST 857 treatment, in a manner similar to that elicited by NGF”. The ChAT activity in data set [1] (in the absence of NGF) was 46.6 ± 2.5 nmoli ACh/mg/hour; in data set [1] (setting [3]), 140.0 ± 8.9 nmoli ACh/mg/hour. Further, the tolerability entry in data set [2] is “well tolerated”. Also, the “neurite outgrowth and cell differentiation” value in the data set on HCN-1A cells (1 mM) was “resulted in neurite outgrowth and cell differentiation toward the neuronal phenotype”. The “GABA immunoreactivity and formation of functional synapses” value in the data set on HCN-1A cells (in the presence and in the absence of NGF (10 ng/ml)) is “induced also GABA immunoreactivity in HCN-1A and formation of functional synapses”.
